# Source: patent publication US11319299B2, “Substituted carboxamides as inhibitors of WDR5 protein-protein binding” (PROPELLON THERAPEUTICS INC., priority 2016, dated 2022)
# Target: WDR5 (Homo sapiens (Human), UniProt P61964)
# Test: Surface Plasmon Resonance (SPR) assay, KD and residence time
# Format: binding
# Settings: surface plasmon resonance (SPR) assay; read-out: WDR5 binding affinity (KD)
# Method: (i) Surface Plasmon Resonance (SPR) Assay
# The lifetime of a drug on its target is determined by two rate constants: the association rate constant (kon) and the dissociation rate constant (koff). In principle, the lifetime of the binary drug—target complex is thus extended by a rapid rate of drug binding and/or a slow rate of drug—target complex dissociation. The in vivo lifetime of a drug-target complex is most critically dependent on the value of the koff [Nat. Rev. Drug Discov. […] Drug Discov. […] Drug-target residence time is defined as the reciprocal of koff (τ=1/koff), making the residence time a parameter that is easily measured by routine in vitro assay methods.
row,Molecule,Kd
1,"C[C@@H]1CN(c2cc(F)c(C3=CC4CCC(C3)N4C(=O)OC(C)(C)C)cc2NC(=O)c2cn(C)c(=O)cc2C(F)(F)F)C[C@H](C)N1C (mixture of isomers) [Example 327, tert-butyl 3-[2-fluoro-5-[[-methyl-6-oxo-4-(trifluoromethyl)pyridine-3-carbonyl]amino]-4-[(3R,5S)-3,4,5-trimethylpiperazin-1-yl]phenyl]-8-azabicyclo[3.2.1]oct-2-ene-8-carboxylate]",123 nM
2,"C[C@H]1CN(c2cc(F)c(-c3cnc(N4CCN(C)CC4)nc3)cc2NC(=O)c2ccc(F)cc2C(F)(F)F)C[C@H](C)N1C (racemic) [Example 382, 4-fluoro-N-[4-fluoro-5-[2-(4-methylpiperazin-1-yl)pyrimidin-5-yl]-2-[(3R,5R)-3,4,5-trimethylpiperazin-1-yl]phenyl]-2-(trifluoromethyl)benzamide]",117 nM
3,"C[C@H]1CN(c2cc(F)c(-c3cnc(N4CCOCC4)nc3)cc2NC(=O)c2ccc(F)cc2C(F)(F)F)C[C@H](C)N1C (racemic) [Example 387, 4-fluoro-N-[4-fluoro-5-(2-morpholin-4-ylpyrimidin-5-yl)-2-[(3R,5R)-3,4,5-trimethylpiperazin-1-yl]phenyl]-2-(trifluoromethyl)benzamide]",83.5 nM
4,"CC1CN(c2cc(F)c(-c3cnc(N4CCOCC4)nc3)cc2NC(=O)c2ccccc2)CCN1C (stereo in doubt) [Example 78, N-[4-fluoro-5-(2-morpholin-4-ylpyrimidin-5-yl)-2-[(3R)-3,4-dimethylpiperazin-1-yl]phenyl]benzamide]",17.9 nM
5,"CC1CN(c2cc(F)c(-c3cnc(N4CCOCC4)nc3)cc2NC(=O)c2ccco2)CCN1C (stereo in doubt) [Example 79, N-[4-fluoro-5-(2-morpholin-4-ylpyrimidin-5-yl)-2-[(3R)-3,4-dimethylpiperazin-1-yl]phenyl]furan-2-carboxamide]",> 200 nM
6,"CC1CN(c2cc(F)c(-c3cnc(N4CCOCC4)nc3)cc2NC(=O)c2cccnc2)CCN1C (stereo in doubt) [Example 80, N-[4-fluoro-5-(2-morpholin-4-ylpyrimidin-5-yl)-2-[(3R)-3,4-dimethylpiperazin-1-yl]phenyl]pyridine-3-carboxamide]",> 200 nM
7,"CC1CN(c2cc(Cl)c(-c3cnc(N4CCOCC4)nc3)cc2NC(=O)c2c[nH]c(=O)cc2C(F)(F)F)CCN1C (stereo in doubt) [Example 81, N-[4-chloro-5-(2-morpholin-4-ylpyrimidin-5-yl)-2-[(3R)-3,4-dimethylpiperazin-1-yl]phenyl]-6-oxo-4-(trifluoromethyl)-1H-pyridine-3-carboxamide]",11.1 nM
8,"CC1CN(c2cc(F)c(-c3cnc(N4CCOCC4)nc3)cc2NC(=O)c2nn(C)c3ccccc23)CCN1C (stereo in doubt) [Example 116, N-[4-fluoro-5-(2-morpholin-4-ylpyrimidin-5-yl)-2-[(3R)-3,4-dimethylpiperazin-1-yl]phenyl]-1-methylindazole-3-carboxamide]",76.8 nM

# Same assay, conditions: surface plasmon resonance (SPR); read-out: WDR5 binding affinity (KD)
row,Kd,Molecule
1,10.9 nM,"C[C@@H]1CN(c2ncc(-c3cc(NC(=O)c4cn(C)c(=O)cc4C(F)(F)F)c(N4CC[C@@H](N(C)C)C4)cc3F)cn2)C[C@H](C)O1 (racemic) [Example 426, N-[4-fluoro-2-[(3S)-3-(dimethylamino)pyrrolidin-1-yl]-5-[2-[(2R,6S)-2,6-dimethylmorpholin-4-yl]pyrimidin-5-yl]phenyl]-1-methyl-6-oxo-4-(trifluoromethyl)pyridine-3-carboxamide]"
2,5.59 nM,"CCN(C)[C@@H]1CCN(c2cc(F)c(-c3cnc(N4C[C@@H](C)O[C@@H](C)C4)nc3)cc2NC(=O)c2cn(C)c(=O)cc2C(F)(F)F)C1 (racemic) [Example 427, N-[4-fluoro-5-[2-[(2R,6S)-2,6-dimethylmorpholin-4-yl]pyrimidin-5-yl]-2-[(3S)-3-[ethyl(methyl)amino]pyrrolidin-1-yl]phenyl]-1-methyl-6-oxo-4-(trifluoromethyl)pyridine-3-carboxamide]"
3,0.617 nM,"C[C@@H]1CN(c2cc(F)c(-c3ccc(N4CCO[C@@H](C)C4)nc3)cc2NC(=O)c2c[nH]c(=O)cc2C(F)(F)F)C[C@H](C)N1C (racemic) [Example 434, N-[4-fluoro-5-[6-[(2R)-2-methylmorpholin-4-yl]pyridin-3-yl]-2-[(3S,5R)-3,4,5-trimethylpiperazin-1-yl]phenyl]-6-oxo-4-(trifluoromethyl)-1H-pyridine-3-carboxamide]"
4,3.43 nM,"C[C@@H]1CN(c2ncc(-c3cc(NC(=O)c4cn(C)c(=O)cc4C(F)F)c(N4CCN(C)[C@@H](C)C4)cc3F)cn2)CCO1 (racemic) [Example 460, 4-(difluoromethyl)-N-[4-fluoro-2-[(3S)-3,4-dimethylpiperazin-1-yl]-5-[2-[(2R)-2-methylmorpholin-4-yl]pyrimidin-5-yl]phenyl]-1-methyl-6-oxopyridine-3-carboxamide]"
5,0.977 nM,"C[C@H]1CN(c2cc(F)c(-c3cnc(N4CCOC[C@@H]4C)nc3)cc2NC(=O)c2cn(C)c(=O)cc2C(F)(F)F)CCN1C (racemic) [Example 608, N-[4-fluoro-2-[(3R)-3,4-dimethylpiperazin-1-yl]-5-[2-[(3R)-3-methylmorpholin-4-yl]pyrimidin-5-yl]phenyl]-1-methyl-6-oxo-4-(trifluoromethyl)pyridine-3-carboxamide]"
6,1.31 nM,"C[C@@H]1CN(c2nccc(-c3cc(NC(=O)c4c[nH]c(=O)cc4C(F)(F)F)c(N4C[C@@H](C)N(C)[C@@H](C)C4)cc3F)n2)CCO1 (racemic) [Example 691, N-[4-fluoro-5-[2-[(2R)-2-methylmorpholin-4-yl]pyrimidin-4-yl]-2-[(3R,5S)-3,4,5-trimethylpiperazin-1-yl]phenyl]-6-oxo-4-(trifluoromethyl)-H-pyridine-3-carboxamide]"
7,4.92 nM,"C[C@@H]1CN(c2cc(F)c(-c3ccnc(N4CCO[C@@H](C)C4)n3)cc2NC(=O)c2cn(C)c(=O)cc2C(F)(F)F)C[C@H](C)N1C (racemic) [Example 694, N-[4-fluoro-5-[2-[(2R)-2-methylmorpholin-4-yl]pyrimidin-4-yl]-2-[(3S,5R)-3,4,5-trimethylpiperazin-1-yl]phenyl]-1-methyl-6-oxo-4-(trifluoromethyl)pyridine-3-carboxamide]"

# More lines, now with the values behind:
row,Molecule,Kd
1,"4-(difluoromethyl)-N-[4-fluoro-5-[2-[(2R)-2-methylmorpholin-4-yl]pyrimidin-5-yl]-2-[(3S,5R)-3,4,5-trimethylpiperazin-1-yl]phenyl]-1-methyl-6-oxopyridine-3-carboxamide [Example 481]",4.89 nM
2,"4-(difluoromethyl)-N-[4-fluoro-5-[6-(oxan-4-yloxy)pyridin-3-yl]-2-[(3R)-3,4-dimethylpiperazin-1-yl]phenyl]-6-oxo-1H-pyridine-3-carboxamide [Example 403]",1.16 nM
3,"C[C@@H]1CN(c2ccc(-c3cc(NC(=O)c4cn(C)c(=O)cc4C(F)(F)F)c(N4CCN(C)[C@@H](C)C4)cc3F)cn2)C[C@H](C)O1 (racemic) [Example 421, N-[4-fluoro-5-[6-[(2R,6S)-2,6-dimethylmorpholin-4-yl]pyridin-3-yl]-2-[(3R)-3,4-dimethylpiperazin-1-yl]phenyl]-1-methyl-6-oxo-4-(trifluoromethyl)pyridine-3-carboxamide]",1.96 nM
